# In patent US6541463B1, “Inhibitors of type 5 and type 3 17β-hydroxysteroid dehydrogenase and methods for their use” (Endorecherche, Inc., priority 1998, dated 2003):
# How the values were obtained:
# [1] = target: T1, human type 2 17β-hydroxysteroid dehydrogenase (Homo sapiens, UniProt P37059); experiment: Enzymatic assay for type 2 17β-HSD; format: biochemical; conditions: Table 4′; for inhibition: bracketed values, 3 · 10^−8M, read-out: Inhibition Type 2 17β-HSD Activity [% Inh. at 3 · 10^−8M]
# T1 construct: expressed in transfected cells; host or cells: 293 cells, transient transfection; microsomal fraction (100 000×g pellet)
# T1 sequence (P37059 1-387): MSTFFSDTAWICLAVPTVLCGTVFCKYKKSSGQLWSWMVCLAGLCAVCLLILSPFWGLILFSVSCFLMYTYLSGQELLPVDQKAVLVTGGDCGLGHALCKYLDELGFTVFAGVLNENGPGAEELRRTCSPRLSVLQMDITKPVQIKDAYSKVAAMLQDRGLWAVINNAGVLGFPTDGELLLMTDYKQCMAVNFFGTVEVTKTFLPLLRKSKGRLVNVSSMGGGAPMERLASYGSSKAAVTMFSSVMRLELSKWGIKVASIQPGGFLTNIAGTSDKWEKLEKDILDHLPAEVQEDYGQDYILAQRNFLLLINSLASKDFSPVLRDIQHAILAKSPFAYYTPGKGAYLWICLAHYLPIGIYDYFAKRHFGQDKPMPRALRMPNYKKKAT
# Procedure: The manner in which IC50 was determined is described in “Efficacy of Preferred Inhibitors: VI. Enzymatic assay for types 1, 2, and 3 17β-HSD and types 1 and 3 3α-HSD”. […] numbers of IC50 are desirable. Blank means that a determination was not done. […]
# Enzyme sources. 293 cells transiently transfected with expression vectors encoding types 1, 2 and 3 17β-HSD (Luu-The et al., J. Steroid Biochem. Molec. Biol., 55: 581-587, 1995), types 1 and 2 5α-reductase (Luu-The et al., J. Invest. Dermatol., 102: 221-226, 1994) and types 1 and 3 3α-HSD (Dufort et al. Biochem. Biophys. Res. Commun. 228: 474-479, 1996), using the calcium phosphate procedure (Kingston et al., In: Current Protocols in Molecular Biology. Edited by E. M. Ausbel, R. Brent, R. E. Kingston, D. D. Moore, J. G. Seidman, J. A. Smith, K. Struhl. John Wiley & Sons, New York, pp. 9.1.1-9.1.9, 1991; Luu-The et al., J. Invest. Dermatol., 102: 221-226, 1994). For assays using cell subfractions, cells were sonicated in 50 mM sodium phosphate buffer (pH 7.4), containing 20% glycerol and 1 mM EDTA and centrifuged at 10 000×g for 30 min before centrifugation for 100 000×g for 1 h to separate the mitochondrial and microsomal fractions, respectively. The cytosol fractions (100 000×g supernatant) was used to determine type 1 activity while the microsomal fraction (pellet at 100 000×g) was used for measurement of types 2 and 3 17β-HSD activities.
# Incubation. The enzymatic reaction was carried out at 37° C. in 1 ml of 50 mM sodium phosphate buffer, pH 7.4, containing 20% glycerol, 1 mM EDTA, and 2 mM cofactors (NADPH or AND^+) for 1 h in the presence of 0.1 μM ^14C-labeled substrate: estrone and 4-dione for types 1 and […] 17β-HSD, respectively, testosterone for type 2 17β-HSD as well as types 1 and 2 5α-reductases, DHT for types 1 and 3 3α-HSD activities, and the indicated concentration of inhibitor.
# Extraction of metabolites, migration on TLC and quantification were as described above for the assay of type 5 17β-HSD.
# [2] = system: Shionogi mouse mammary carcinoma cells; experiment: Androgenic activity: stimulation of proliferation of Shionogi cells; format: cell-based
# Procedure: In column 9, the androgenic activity of preferred type 5 inhibitors expressed as the percentage of stimulation of proliferation of Shionogi cells at concentrations of 10^−7 M (left number) and 10^−6 M (right number) of inhibitor. The manner in which the stimulation is determined is described in “Other Tests; B-Androgenic/Antiandrogenic Activity”. Lower numbers are desirable. ND means that a determination was not done.
# Androgenic/antiandrogenic activity of some preferred compounds has been measured using the Shionogi mouse mammary carcinoma cells.
# Minimal essential culture medium (MEM), non-essential amino acids, and fetal calf serum were purchased from Flow Laboratories. In order to remove endogenous steroids, serum was incubated overnight at 4° C. with 1% activated charcoal (Norit A, Fisher) and 0.1% Dextran T-70 (Pharmacia). A 2-h supplementary adsorption was performed at 25° C. in order to further remove protein-bound steroids. Serum was also inactivated by a 20-min incubation at 56° C.
# 5α-dihydrotestosterone (DHT) was obtained from Steraloids. The antiandrogen hydroxyflutamide (OH-FLU) was kindly supplied by Drs. T. L. Nagabuschan and R. Neri (Schering Corporation, Kenilworth, U.S.A.).
# Shionogi male mice bearing androgen-sensitive mammary tumors were obtained from Drs. Keishi Matsumoto, Osaka, Japan, and Yvonne Lefebvre, Ottawa, Canada. For primary culture, tumors were excised and washed in ice-cold sterile 25 mM Hepes buffer (137 mM NaCl; 5 mM KCl; 0.7 mM Na2HPO4; 10 mM glucose, pH 7.2). After mincing with scissors, the tumor minces were digested for 2 h at 37° C. in Hepes buffer containing 3.8 mg/ml collagenase (Clostridium, Boehringer), 1.5 mg/ml hyaluronidase II (Sigma), and 3% bovine serum albumin fraction V (Schwartz-Mann). Dispersed cells were collected by centrifugation (500×g for 10 min), washed twice by suspension in minimal essential medium (MEM) containing 5% dextran-coated charcoal-treated fetal calf serum (DCC-FCS), 1% non-essential amino acids, 10 IU/ml penicillin, 50 μg/ml streptomycin, and 100 nM dihydrotestosterone (DHT) (Steraloids).
# Cells were plated in the same medium at a density of 75 000 cells/ml in 75 cm^2 flasks under an atmosphere of 5% carbon dioxide in air at 37° C. The medium was changed weekly. The steroids and antisteroids were dissolved in ethanol and kept in stock solutions chosen to yield final ethanol concentrations less than 0.01% in the culture medium.
# Cells were subcultured at near-confidence by gentle digestion in a solution of 0.1% pancreatin (Flow Laboratories) in Hepes buffer containing 3 mM ethylenediaminetetraacetic acid (EDTA) (pH 7.2). Cells were pelleted by centrifugation, resuspended in culture medium, counted in a Coulter counter, and replated as described above. Soft agar cloning was performed as described (Stanley et al., Cell 10: 35-44, 1977) in the presence of 100 nM DHT.
# Cells were plated in 24-well plates at a density of 20 000 cells/well. The indicated increasing concentrations of agents were added to triplicate dishes, and cells were grown for 10-12 days with changes of medium every 3-4 days. Cell number was measured by direct counting in a Coulter counter.
# ED50 values of action of DHT and glucocorticoids were calculated according to a least-square regression as described (Rodbard, Endocrinology 94: 1427-1431, 1974). Statistical significance was calculated according to a multiple-range test (Kramer, Biometrics 12: 307-310,1956).
smiles,measurement,setting,value
COCCOc1ccc2c(c1)C(=O)CC1C2CCC2(C)C1CCC21CCC(C)(C)C(=O)O1 (centres unmarked) [EM-1408-CS],inhibition,[1],66%
same,"Androgenic Activity Shionogi, Basal E^−6","[2]; Table 4′, E^−6",−12%
same,"Androgenic Activity Shionogi, Basal E^−7","[2]; Table 4′, E^−7",0%
CC1(C)CCC2(CCC3C4CCc5cc(O)c(C#N)cc5C4CCC32C)OC1=O (centres unmarked) [EM-01645],inhibition,[1],38%
same,"Androgenic Activity Shionogi, Basal E^−6","[2]; Table 4′, E^−6",35%
same,"Androgenic Activity Shionogi, Basal E^−7","[2]; Table 4′, E^−7",−5%
CC1(C)CCC2(CCC3C4CCc5cc(O)c([N+](=O)[O-])cc5C4CCC32C)OC1=O (centres unmarked) [EM-1125-CS],"Androgenic Activity Shionogi, Basal E^−6","[2]; Table 4′, E^−6",−10%
same,"Androgenic Activity Shionogi, Basal E^−7","[2]; Table 4′, E^−7",3%
"CCOc1ccc2c(c1)CCC1C2CC[C@@]2(C)C1CC[C@@]21CCC(C)(C)C(=O)O1 (stereo partly drawn) [EM-1369, 3-Ethoxy-1,3,5(10)-estratrien-17(R)-spiro-2′-(5′,5′-dimethyl-6′-oxo)-tetrahydropyran]",inhibition,[1],62%
same,"Androgenic Activity Shionogi, Basal E^−6","[2]; Table 4′, E^−6",0%
same,"Androgenic Activity Shionogi, Basal E^−7","[2]; Table 4′, E^−7",0%
"CC1CC(=O)OC2(CCC3C4CCc5cc(O)ccc5C4CCC32C)C1 [PB-132-142, 3-Hydroxy-1,3,5(10)-estratrien-17(R)-spiro-2′-(4′-methyl-6′-oxo)tetrahydropyran]",inhibition,[1],69%
same,"Androgenic Activity Shionogi, Basal E^−6","[2]; Table 4′, E^−6",−17%
same,"Androgenic Activity Shionogi, Basal E^−7","[2]; Table 4′, E^−7",25%
"COCCOc1ccc2c(c1)CCC1C2CCC2(C)C1CCC21CCC(C)(C)C(=O)O1 [EM-1368-CS, 3-Methoxyethoxy-1,3,5(10)-estratrien-17(R)-spiro-2′-(5′,5′-dimethyl-6′-oxo)-tetrahydropyran]",inhibition,[1],73%
same,"Androgenic Activity Shionogi, Basal E^−6","[2]; Table 4′, E^−6",−22%
same,"Androgenic Activity Shionogi, Basal E^−7","[2]; Table 4′, E^−7",8%
"COC(=O)CCCC(=O)O[C@]1(C(C)=O)CC[C@H]2[C@@H]3C=C(C)C4=CC(=O)CC[C@]4(C)[C@H]3CC[C@@]21C [EM-1007, 6-Methyl-4,6-pregnadien-17α-ol-3,20-dione 4′-Carbomethoxybutyrate]","Androgenic Activity Shionogi, Basal",[2]; E^−6,−31
same,"Androgenic Activity Shionogi, Basal",[2]; E^−7,0
CCCC(=O)O[C@]1(C)C(=O)CCC2C3C=C(C)C4=CC(=O)CC[C@]4(C)C3CC[C@@]21C (some centres unmarked) [EM-1078],"Androgenic Activity Shionogi, Basal E^−6",[2]; E^−6,45
same,"Androgenic Activity Shionogi, Basal E^−7",[2]; E^−7,5
CCCCN(C)C(=O)[C@@]1(OC(C)=O)CCC2C3C=C(C)C4=CC(=O)CC[C@]4(C)C3CC[C@@]21C (some centres unmarked) [EM-1165],"Androgenic Activity Shionogi, Basal",[2]; E^−6,−17
same,"Androgenic Activity Shionogi, Basal",[2]; E^−7,5
"C[C@]12CCC3c4cc([N+](=O)[O-])c(O)cc4CCC3C1CC[C@@]21CCCC(=O)O1 (stereo partly drawn) [EM-1124, 2-Nitro-1,3,5(10)-estraetriene-3-ol-17(R)-spiro-2′-(6′-oxo)tetrahydropyran]","Androgenic Activity Shionogi, Basal E^−6","[2]; Table 4′, E^−6",−11%
same,"Androgenic Activity Shionogi, Basal E^−7","[2]; Table 4′, E^−7",0%
"CC12CCC3c4ccc(O)cc4CCC3C1CCC21CC=CC(=O)O1 [PB-132-140, 3-hydroxy-1,3,5(10)-estratrien-17(R)-spiro-2′-(4′,5′-dihydro-6′-oxo)pyran]","Androgenic Activity Shionogi, Basal E^−6","[2]; Table 4′, E^−6",−18%
same,"Androgenic Activity Shionogi, Basal E^−7","[2]; Table 4′, E^−7",30%
CC12C=CC(=O)C=C1C=CC1C2CCC2(C)C(=O)C3(CCCCC3)CC12 (centres unmarked) [CS-204],"Androgenic Activity Shionogi, Basal E^−6",[2]; E^−6,−17
same,"Androgenic Activity Shionogi, Basal E^−7",[2]; E^−7,0
CN(C)C(=O)c1ccc2c(c1)CCC1C2CCC2(C)C1CCC21CCC(C)(C)C(=O)O1 (centres unmarked) [EM-1403],"Androgenic Activity Shionogi, Basal E^−6","[2]; Table 4′, E^−6",0%
same,"Androgenic Activity Shionogi, Basal E^−7","[2]; Table 4′, E^−7",19%
CC(=O)O[C@]1(C)C(=O)CCC2C3C=C(C)C4=CC(=O)C=C[C@]4(C)C3CC[C@@]21C (some centres unmarked) [CS-237],"Androgenic Activity Shionogi, Basal E^−6",[2]; E^−6,−29
same,"Androgenic Activity Shionogi, Basal E^−7",[2]; E^−7,−22
"C[C@]12CCC(=O)C=C1C=C[C@@H]1[C@@H]2CC[C@]2(C)C(=O)C3(CC4CC4C3)C[C@@H]12 (some centres unmarked) [EM-1299, 4,6-Androstadien-3,17-dione-16-spirobicyclo[3′.1′.0′]-hexane]","Androgenic Activity Shionogi, Basal E^−6",[2]; E^−6,10
same,"Androgenic Activity Shionogi, Basal E^−7",[2]; E^−7,5
CC(C)C[C@@H]1CC2C3C=CC4=CC(=O)CC[C@]4(C)C3CC[C@]2(C)C1=O (some centres unmarked) [EM-1273-CS],"Androgenic Activity Shionogi, Basal E^−6",[2]; E^−6,−36
same,"Androgenic Activity Shionogi, Basal E^−7",[2]; E^−7,12
CCCC(=O)OC1(C(C)=O)CCC2C3C=C(C)C4=CC(=O)CC(C)C4(C)C3CCC21C (centres unmarked) [CS-245],"Androgenic Activity Shionogi, Basal",[2]; E^−6,−34
same,"Androgenic Activity Shionogi, Basal",[2]; E^−7,−28
COCCOc1cc2c(cc1C(=O)N(C)C)C1CCC3(C)C(CCC34CCC(C)(C)C(=O)O4)C1CC2 (centres unmarked) [EM-1413-CS],inhibition,[1],69%
same,IC50,[1]; read-out: Inhibition Type 2 17β-HSD Activity IC50,> 10 µM
CCC(=O)O[C@]1(C(C)=O)CCC2C3C=C(C)C4=CC(=O)C[C@H](C)[C@]4(C)C3CC[C@@]21C (some centres unmarked) [CS-243],"Androgenic Activity Shionogi, Basal",[2]; E^−6,−23
same,"Androgenic Activity Shionogi, Basal",[2]; E^−7,−13
CCC[C@]1(F)CC2C3C=CC4=CC(=O)CC[C@]4(C)C3CC[C@]2(C)C1=O (some centres unmarked) [EM-1183],"Androgenic Activity Shionogi, Basal E^−6",[2]; E^−6,−17
same,"Androgenic Activity Shionogi, Basal E^−7",[2]; E^−7,0
"CSCCOc1ccc2c(c1)CCC1C2CCC2(C)C1CCC21CCCC(=O)O1 [CS-242, 3-Methylthioethyloxy-1,3,5(10)-estratrien-17(R)-spiro-2′-(6′-oxo) Tetrahydropyran]","Androgenic Activity Shionogi, Basal E^−6","[2]; Table 4′, E^−6",−32%
same,"Androgenic Activity Shionogi, Basal E^−7","[2]; Table 4′, E^−7",0%
CC(=O)O[C@]1(C(=O)N(C)C)CCC2C3C=C(C)C4=CC(=O)CC[C@]4(C)C3CC[C@@]21C (some centres unmarked) [EM-1159],"Androgenic Activity Shionogi, Basal",[2]; E^−6,−14
same,"Androgenic Activity Shionogi, Basal",[2]; E^−7,15
CC1(C)CCC2(CCC3C4CCc5ccccc5C4CCC32C)OC1=O (centres unmarked) [CS-224],"Androgenic Activity Shionogi, Basal E^−6","[2]; Table 4′, E^−6",0%
same,"Androgenic Activity Shionogi, Basal E^−7","[2]; Table 4′, E^−7",17%
CC1=C[C@@H]2[C@H](CC[C@]3(C)C(=O)C4(CCCCC4)C[C@@H]23)[C@@]2(C)CCC(=O)C=C12 [EM-925],"Androgenic Activity Shionogi, Basal E^−6",[2]; E^−6,−4
same,"Androgenic Activity Shionogi, Basal E^−7",[2]; E^−7,11
